Data reported in patent US8889682B2, “Inhibitors of bruton'S tyrosine kinase” (Hoffmann-La Roche Inc., priority 2011, dated 2014).

Tested on: B cell receptor-mediated activation of B cells in human blood (CD69 expression)
Experiment: Inhibition of B cell activation in whole blood measured by CD69 expression
Format: cell-based
Details: anti-IgM stimulation, 20 hours, CD69-positive cells that are also CD20-positive, read-out: HWB IC50
Method: Inhibition of B Cell Activation in Whole Blood Measured by CD69 Expression
A procedure to test the ability of Btk inhibitors to suppress B cell receptor-mediated activation of B cells in human blood is as follows:
Human whole blood (HWB) is obtained from healthy volunteers, with the following restrictions: 24 hr drug-free, non-smokers. Blood is collected by venipuncture into Vacutainer tubes anticoagulated with sodium heparin. Test compounds are diluted to ten times the desired starting drug concentration in PBS […], followed by three-fold serial dilutions in 10% DMSO in PBS to produce a nine point dose-response curve. […] HWB (100 μl) is added to each well, and after mixing the plates are incubated at 37 C, 5% CO2, 100% humidity for 30 minutes.
Included are induced control, unstained and single stains for compensation adjustments and initial voltage settings. […] Supernatants are removed via suction and the remaining pellets are lysed again with another 1 ml of 1× Pharmingen Lyse Buffer, and plates are spun down as before. Supernatants are aspirated and remaining pellets are washed in FACs buffer (PBS+1% FBS). […] Samples are transferred to a 96 well plate suitable to be run on the HTS 96 well system on the BD LSR II flow cytometer.
Using appropriate excitation and emission wavelengths for the fluorophores used, data are acquired and percent positive cell values are obtained using Cell Quest Software. Results are initially analyzed by FACS analysis software (Flow Jo).

| IC50 [nM] | SMILES |
| --- | --- |
| 5 | CN1CCC[C@H]1c1ccc(Nc2cc(-c3ccnc(-n4ncc5cc(C(C)(C)C)cc(F)c5c4=O)c3CO)nn(C)c2=O)nc1 [Compound I-2, 6-tert-Butyl-8-fluoro-2-(3-hydroxymethyl-4-{1-methyl-5-[5-((S)-1-methyl-pyrrolidin-2-yl)-pyridin-2-ylamino]-6-oxo-1,6-dihydro-pyridazin-3-yl}-pyridin-2-yl)-2H-phthalazin-1-one] |
| 6 | CCN1CCC(c2ccc(Nc3cc(-c4ccnc(-n5ncc6cc(C(C)(C)C)cc(F)c6c5=O)c4CO)nn(C)c3=O)nc2)CC1 [Compound I-14, 6-tert-Butyl-2-{4-[5-(1′-ethyl-1′,2′,3′,4′,5′,6′-hexahydro-[3,4′]bipyridinyl-6-ylamino)-1-methyl-6-oxo-1,6-dihydro-pyridazin-3-yl]-3-hydroxymethyl-pyridin-2-yl}-8-fluoro-2H-phthalazin-1-one] |
| 24 | CN1CCn2nc(Nc3cc(-c4ccnc(-n5ncc6cc(C(C)(C)C)ccc6c5=O)c4CO)nn(C)c3=O)cc2C1 [Compound I-19, 6-tert-Butyl-2-{3-hydroxymethyl-4-[1-methyl-5-(5-methyl-4,5,6,7-tetrahydro-pyrazolo[1,5-a]pyrazin-2-ylamino)-6-oxo-1,6-dihydro-pyridazin-3-yl]-pyridin-2-yl}-2H-phthalazin-1-one] |
| 74 | CN1CCn2nc(Nc3cc(-c4ccnc(-n5ccc6cc(C7CC7)cc(F)c6c5=O)c4CO)nn(C)c3=O)cc2C1 [Compound I-20, 6-Cyclopropyl-8-fluoro-2-{3-hydroxymethyl-4-[1-methyl-5-(5-methyl-4,5,6,7-tetrahydro-pyrazolo[1,5-a]pyrazin-2-ylamino)-6-oxo-1,6-dihydro-pyridazin-3-yl]-pyridin-2-yl}-2H-isoquinolin-1-one] |
| 18 | Cn1nc(-c2ccnc(-n3ncc4cc(C(C)(C)C)cc(F)c4c3=O)c2CO)cc(Nc2cc3n(n2)CCN(C2COC2)C3)c1=O [Compound I-21, 6-tert-Butyl-8-fluoro-2-{3-hydroxymethyl-4-[1-methyl-5-(5-oxetan-3-yl-4,5,6,7-tetrahydro-pyrazolo[1,5-a]pyrazin-2-ylamino)-6-oxo-1,6-dihydro-pyridazin-3-yl]-pyridin-2-yl}-2H-phthalazin-1-one] |
| 44 | CCN1CCn2nc(Nc3cc(-c4ccnc(-n5ncc6cc(C(C)(C)C)cc(F)c6c5=O)c4CO)nn(C)c3=O)cc2C1 [Compound I-22, 6-tert-Butyl-2-{4-[5-(5-ethyl-4,5,6,7-tetrahydro-pyrazolo[1,5-a]pyrazin-2-ylamino)-1-methyl-6-oxo-1,6-dihydro-pyridazin-3-yl]-3-hydroxymethyl-pyridin-2-yl}-8-fluoro-2H-phthalazin-1-one] |

The remaining lines, values behind:

| SMILES | IC50 [nM] |
| --- | --- |
| CN1CCC(c2ccc(Nc3cc(-c4ccnc(-n5ncc6cc(C(C)(C)C)cc(F)c6c5=O)c4CO)nn(C)c3=O)nc2)CC1 [Compound I-1, 6-tert-Butyl-8-fluoro-2-{3-hydroxymethyl-4-[1-methyl-5-(1′-methyl-1′,2′,3′,4′,5′,6′-hexahydro-[3,4′]bipyridinyl-6-ylamino)-6-oxo-1,6-dihydro-pyridazin-3-yl]-pyridin-2-yl}-2H-phthalazin-1-one] | 11 |
| Cn1nc(-c2ccnc(-n3ncc4cc(C(C)(C)C)cc(F)c4c3=O)c2CO)cc(Nc2ccc(C(=O)N3CCOCC3)cn2)c1=O [Compound I-3, 6-tert-Butyl-8-fluoro-2-(3-hydroxymethyl-4-{1-methyl-5-[5-(morpholine-4-carbonyl)-pyridin-2-ylamino]-6-oxo-1,6-dihydro-pyridazin-3-yl}-pyridin-2-yl)-2H-phthalazin-1-one] | 14 |
| Cn1nc(-c2ccnc(-n3ncc4cc(C(C)(C)C)cc(F)c4c3=O)c2CO)cc(Nc2ccc(S(C)(=O)=O)cn2)c1=O [Compound I-4, 6-tert-Butyl-8-fluoro-2-{3-hydroxymethyl-4-[5-(5-methanesulfonyl-pyridin-2-ylamino)-1-methyl-6-oxo-1,6-dihydro-pyridazin-3-yl]-pyridin-2-yl}-2H-phthalazin-1-one] | 95 |
| CN(C)C(=O)c1ccc(Nc2cc(-c3ccnc(-n4ncc5cc(C(C)(C)C)cc(F)c5c4=O)c3CO)nn(C)c2=O)nc1 [Compound I-5, 6-{6-[2-(6-tert-Butyl-8-fluoro-1-oxo-1H-phthalazin-2-yl)-3-hydroxymethyl-pyridin-4-yl]-2-methyl-3-oxo-2,3-dihydro-pyridazin-4-ylamino}-N,N-dimethyl-nicotinamide] | 30 |
| CN(C)C(=O)c1ccc(Nc2cc(-c3ccnc(-n4ccc5cc(C6CC6)cc(F)c5c4=O)c3CO)nn(C)c2=O)nc1 [Compound I-6, 6-{6-[2-(6-Cyclopropyl-8-fluoro-1-oxo-1H-isoquinolin-2-yl)-3-hydroxymethyl-pyridin-4-yl]-2-methyl-3-oxo-2,3-dihydro-pyridazin-4-ylamino}-N,N-dimethyl-nicotinamide] | 77 |
| Cn1nc(-c2ccnc(-n3ncc4cc(C(C)(C)C)ccc4c3=O)c2CO)cc(Nc2ccc(C(=O)N3CCOCC3)cn2)c1=O [Compound I-7, 6-tert-Butyl-2-(3-hydroxymethyl-4-{1-methyl-5-[5-(morpholine-4-carbonyl)-pyridin-2-ylamino]-6-oxo-1,6-dihydro-pyridazin-3-yl}-pyridin-2-yl)-2H-phthalazin-1-one] | 101 |
| Cn1cc(-c2ccnc(-n3ncc4cc(C(C)(C)C)cc(F)c4c3=O)c2CO)cc(Nc2ccc(C(=O)N3CCOCC3)cn2)c1=O [Compound I-8, 2′-(6-tert-Butyl-8-fluoro-1-oxo-1H-phthalazin-2-yl)-3′-hydroxymethyl-1-methyl-5-[5-(morpholine-4-carbonyl)-pyridin-2-ylamino]-1H-[3,4′]bipyridinyl-6-one] | 27 |
| CN(C)C(=O)c1ccc(Nc2cc(-c3ccnc(-n4ncc5cc(C(C)(C)C)cc(F)c5c4=O)c3CO)cn(C)c2=O)nc1 [Compound I-10, 6-[2′-(6-tert-Butyl-8-fluoro-1-oxo-1H-phthalazin-2-yl)-3′-hydroxymethyl-1-methyl-6-oxo-1,6-dihydro-[3,4′]bipyridinyl-5-ylamino]-N,N-dimethyl-nicotinamide] | 9 |
| Cn1cc(-c2ccnc(-n3ccc4cc(C5CC5)cc(F)c4c3=O)c2CO)cc(Nc2ccc(C(=O)N3CCOCC3)cn2)c1=O [Compound I-11, 2′-(6-Cyclopropyl-8-fluoro-1-oxo-1H-isoquinolin-2-yl)-3′-hydroxymethyl-1-methyl-5-[5-(morpholine-4-carbonyl)-pyridin-2-ylamino]-1H-[3,4′]bipyridinyl-6-one] | 15 |
| CN1CCC[C@H]1c1ccc(Nc2cc(-c3ccnc(-n4ncc5cc(C(C)(C)C)ccc5c4=O)c3CO)nn(C)c2=O)nc1 [Compound I-12, 6-tert-Butyl-2-(3-hydroxymethyl-4-{1-methyl-5-[5-((S)-1-methyl-pyrrolidin-2-yl)-pyridin-2-ylamino]-6-oxo-1,6-dihydro-pyridazin-3-yl}-pyridin-2-yl)-2H-phthalazin-1-one] | 28 |
| CN1CCC(c2ccc(Nc3cc(-c4ccnc(-n5ncc6cc(C(C)(C)C)ccc6c5=O)c4CO)nn(C)c3=O)nc2)CC1 [Compound I-13, 6-tert-Butyl-2-{3-hydroxymethyl-4-[1-methyl-5-(1′-methyl-1′,2′,3′,4′,5′,6′-hexahydro-[3,4′]bipyridinyl-6-ylamino)-6-oxo-1,6-dihydro-pyridazin-3-yl]-pyridin-2-yl}-2H-phthalazin-1-one] | 47 |
| Cn1nc(-c2ccnc(-n3ncc4cc(C(C)(C)C)cc(F)c4c3=O)c2CO)cc(Nc2ccc(OC(C)(C)CN3CCC3)cn2)c1=O [Compound I-15, 2-(4-{5-[5-(2-Azetidin-1-yl-1,1-dimethyl-ethoxy)-pyridin-2-ylamino]-1-methyl-6-oxo-1,6-dihydro-pyridazin-3-yl}-3-hydroxymethyl-pyridin-2-yl)-6-tert-butyl-8-fluoro-2H-phthalazin-1-one] | 3 |
| Cn1nc(-c2ccnc(-n3ncc4cc(C(C)(C)C)ccc4c3=O)c2CO)cc(Nc2ccc(OC(C)(C)CN3CCC3)cn2)c1=O [Compound I-16, 2-(4-{5-[5-(2-Azetidin-1-yl-1,1-dimethyl-ethoxy)-pyridin-2-ylamino]-1-methyl-6-oxo-1,6-dihydro-pyridazin-3-yl}-3-hydroxymethyl-pyridin-2-yl)-6-tert-butyl-2H-phthalazin-1-one] | 28 |
| Cn1nc(Nc2cc(-c3ccnc(-n4ncc5cc(C(C)(C)C)cc(F)c5c4=O)c3CO)nn(C)c2=O)cc1CN1CCC1 [Compound I-17, 2-{4-[5-(5-Azetidin-1-ylmethyl-1-methyl-1H-pyrazol-3-ylamino)-1-methyl-6-oxo-1,6-dihydro-pyridazin-3-yl]-3-hydroxymethyl-pyridin-2-yl}-6-tert-butyl-8-fluoro-2H-phthalazin-1-one] | 30 |
| CN1CCn2nc(Nc3cc(-c4ccnc(-n5ncc6cc(C(C)(C)C)cc(F)c6c5=O)c4CO)nn(C)c3=O)cc2C1 [Compound I-18, 6-tert-Butyl-8-fluoro-2-{3-hydroxymethyl-4-[1-methyl-5-(5-methyl-4,5,6,7-tetrahydro-pyrazolo[1,5-a]pyrazin-2-ylamino)-6-oxo-1,6-dihydro-pyridazin-3-yl]-pyridin-2-yl}-2H-phthalazin-1-one] | 29 |
